Laboratory results as given in US20210283107A1, “Methods to Expand the Spectrum of Gram-Positive Antibiotics” (NORTH CAROLINA STATE UNIVERSITY, priority 2016, published 2021).
Converted amounts (≈) assume the structure as drawn.

Columns and labels:
[1] = test system: AB5075; assay: G. mellonella model infected with AB5075, survival; assay type: in vivo, Galleria mellonella
Method: Galleria mellonella larvae (Speedy Worm, Alexandria, Minn.) were used within ten days of shipment from the vendor. After reception of worms, larvae were kept in the dark at room temperature for at least 24 h before infection. Larvae weighing between 200 to 300 mg were used in the survival assay. Using a 10 μL glass syringe (Hamilton, Reno, Nev.) fitted with a 30 G needle (Exel International, St. Petersburg, Fl), 5 μL of the desired compound and concentration were injected into the last left proleg. After 2.5 h, a second 5 μL injection containing 6×10^5 CFU of Acinetobacter baumannii 5075 was injected into the second to last left proleg. Injected worms were left at room temperature in the dark while being assessed at 24 h intervals over 6 days. […] Experiment was repeated 7 times using 10 larvae per experimental group.

[2] = test system: A. baumannii mutant AB522; assay: MIC against Tn-seq transposon mutant AB522; assay type: cell-based; settings: Acinetobacter baumannii
Method: (§1) During individual MIC screening, two mutants, AB522 and AB1310, were identified due to their increased sensitivity to the three macrolide antibiotics and vancomycin when compared to AB 5075 (Table 17).
(§2) Day Cultures (6 h) were subcultured to 5×10^5 CFU/mL in cation adjusted Mueller-Hinton broth (CAMHB). Aliquots (1 mL) were placed in culture tubes, and compound was added from 100 mM stock solutions, such that the compound concentration equaled the highest concentration tested (200 μM or 64 μg/mL). Samples were then aliquoted (200 μL) into the first row of wells of a 96-well plate, with all remaining wells being filled with 100 μL of initial bacterial subculture. The wells in row one were mixed five times before 100 μL was transferred to the following row (row two). Row two was then mixed five times, and 100 μL was transferred to row three. This processed was repeated until the final row had been mixed. This process provided a serial dilution of the compound. Plates were covered with Glad Press n'Seal and were incubated under stationary conditions at 37° C. for 16 hours. MIC values were recorded as the lowest concentration at which no bacterial growth was observed.

[3] = test system: A. baumannii mutant AB1310; assay: MIC against Tn-seq transposon mutant AB1310; assay type: cell-based; settings: Acinetobacter baumannii
Method: as §1, §2

[4] = test system: A. baumannii strain 4026; assay: Potentiation of clarithromycin and vancomycin against clinical isolate; assay type: cell-based, Acinetobacter baumannii; settings: antibiotic alone
Method: (§3) As previously stated, A. baumannii 5075 was chosen for these studies due to its virulence and multidrug resistance, but to further analyze the activity of our lead compounds, 23 A. baumannii clinical isolates obtained from Walter Reed Army Institute of Research (WRAIR) were tested.
(§4) Day Cultures (6 h) were subcultured to 5×10^5 CFU/mL in cation adjusted Mueller-Hinton broth (CAMHB). […] One milliliter of the resulting solution was aliquoted into a separate culture tube and was dosed with antibiotic so that the resulting concentration was the highest desirable concentration to be tested. Bacteria treated with antibiotic alone were used as a control. Row one of a 96-well plate was filled with 200 μL of the antibiotic/compound solution, and the remaining rows were filled with 100 μL of the remaining 4 mL bacterial subculture. The wells in row one were mixed five times before 100 μL was transferred to the following row (row two). Row two was then mixed five times, and 100 μL was transferred to row three. This process was repeated until the second to last row had been reached. The last row is left unexposed to antibiotic in order to serve as a negative control. The antibiotic only treated bacteria was plated by aliquoting 200 μL of the treated bacteria into row one and filling the remaining rows with untreated bacteria from the original bacteria subculture. The rows were mixed in the same way as described above. Plates were covered with Glad Press n'Seal and were incubated under stationary conditions at 37° C. for 16 hours. MIC values were recorded as the lowest concentration at which no bacterial growth was observed. Fold reductions were determined by comparison of the compound treated wells with the antibiotic only treated control wells.

[5] = test system: A. baumannii strain 4027; assay: as above; assay type: cell-based, Acinetobacter baumannii; settings: antibiotic alone
Method: as §3, §4

[6] = test system: A. baumannii strain 3806; assay: as above; assay type: cell-based, Acinetobacter baumannii; settings: antibiotic alone
Method: as §3, §4

[7] = test system: A. baumannii strain 4025; assay: as above; assay type: cell-based, Acinetobacter baumannii; settings: antibiotic alone
Method: as §3, §4

[8] = test system: A. baumannii strain 4857; assay: as above; assay type: cell-based, Acinetobacter baumannii; settings: antibiotic alone
Method: as §3, §4

[9] = test system: A. baumannii strain 3785; assay: as above; assay type: cell-based, Acinetobacter baumannii; settings: antibiotic alone
Method: as §3, §4

[10] = test system: A. baumannii strain 8967; assay: as above; assay type: cell-based, Acinetobacter baumannii; settings: antibiotic alone
Method: as §3, §4

[11] = test system: A. baumannii strain 4498; assay: as above; assay type: cell-based, Acinetobacter baumannii; settings: antibiotic alone
Method: as §3, §4

[12] = test system: A. baumannii strain 5711; assay: as above; assay type: cell-based, Acinetobacter baumannii; settings: antibiotic alone
Method: as §3, §4

[13] = test system: A. baumannii strain 5197; assay: as above; assay type: cell-based, Acinetobacter baumannii; settings: antibiotic alone
Method: as §3, §4

[14] = test system: A. baumannii strain 5075 (AB5075); assay: Macrolide sensitization / antibiotic resensitization: antibiotic MIC in presence of compound (broth microdilution); assay type: cell-based, Acinetobacter baumannii; settings: compound at 30 μM vs antibiotic alone; AB5075
Method: A. baumannii 5075 was plated on LB agar, then grown in CAMHB for 6-8 h and this culture was used to inoculate fresh CAMHB (5×10^5 CFU/mL). The resulting suspension was aliquoted (5 mL) into culture tubes and compound, from 100 mM DMSO stock, was added. One aliquot was not treated (control). 1 mL of each sample was transferred to a new culture tube and antibiotic was added. Rows 2-12 of a 96-well microtiter plate were filled with 100 μL/well from the remaining 4 mL bacterial subcultures, allowing the concentration of compound to be kept uniform throughout the antibiotic dilution procedure. Samples containing antibiotic were aliquoted (200 μL) into the corresponding first row wells of the microtiter plate. Row 1 wells were mixed 6 to 8 times then 100 μL was withdrawn and transferred to row 2. Row 2 wells were mixed 6 to 8 times, followed by a 100 μL transfer from row 2 to row 3. This procedure was repeated to serially dilute the rest of the rows of the microtiter plate, with the exception of the final row, to which no antibiotic was added (to check for growth of bacteria in the presence of compound alone). The microtiter plate was then covered, placed in a covered damp plastic container and incubated under stationary conditions at 37° C. After 16-18 hrs minimum inhibitory concentration (MIC) values were recorded as the lowest concentration of antibiotic at which there was no visible growth of bacteria. Experiments were carried out in duplicate each time and repeated at least twice.
The difference in antibiotic MIC between the control (no compound) sample, and the samples containing each compound was recorded as the fold-reduction.
as §4

[15] = test system: AB5075; assay: Checkerboard assay for FIC determination with colistin; assay type: cell-based, Acinetobacter baumannii; settings: chequerboard, ΣFIC≥2 considered antagonistic
Method: Against AB5075, we determined that the ΣFIC with compound 1 to be 17 and the ΣFIC with compound 10 to be 33. These ΣFIC values indicate that both compounds are highly antagonistic with colistin as a ΣFIC≥2 is considered antagonistic.
Day Cultures (6 h) of A. baumannii 5075 were subcultured to 5×10^5 CFU/mL in cation adjusted Mueller-Hinton broth (CAMHB). 100 μL of the inoculated media was distributed into all wells of a 96-well plate except well 1A. Inoculated CAMHB (200 μL) containing compound (twice the highest concentration tested) was added to well 1A, and 100 μL of the same sample was added to wells 2A-12A. The contents in column A were mixed five times before 100 μL was transferred to column B. The contents of column B were mixed 5 times before transferring to column C. This process was repeated with the remainder of the columns up to column G. Column H was not mixed to allow determination of the antibiotic MIC alone. […] Row 12 was not mixed so that the MIC of the compound alone could be determined. The MICs of both compound and antibiotic alone were recorded, as well as the wells containing the combination. The ΣFICs were calculated as follows: ΣFIC=FIC (Compound)+FIC (antibiotic), where FIC (compound) is the MIC of the compound in the combination/MIC of the compound alone and the FIC (antibiotic) is the MIC of the antibiotic in combination/the MIC of the antibiotic alone. […]

[16] = test system: A. baumannii strain 5075 (AB5075); assay: Broth microdilution MIC determination of compound alone; assay type: cell-based; settings: Acinetobacter baumannii; compound alone; AB5075; read-out: MIC
Method: Our initial screening began by testing a diverse selection of 2-AI compounds from our internal library for their minimal inhibitory concentrations (MIC) against A. baumannii isolate 5075.
as §2

CC[C@H]1OC(=O)[C@H](C)[C@@H](O[C@H]2C[C@@](C)(OC)[C@@H](O)[C@H](C)O2)[C@H](C)[C@@H](O[C@@H]2O[C@H](C)C[C@H](N(C)C)[C@H]2O)[C@](C)(OC)C[C@@H](C)C(=O)[C@H](C)[C@@H](O)[C@]1(C)O [Clarithromycin, reference compound]
survival after 6 days ([1]; clarithromycin alone at 25 mg/kg): 1% | MIC [2]: 2 µg/mL (≈ 2.67 µM) | MIC [3]: 2 µg/mL (≈ 2.67 µM) | MIC (μg/mL) of the antibiotic [4]: 64 µg/mL | MIC (μg/mL) of the antibiotic [5]: 64 µg/mL | MIC (μg/mL) of the antibiotic [6]: 16 µg/mL | MIC (μg/mL) of the antibiotic [7]: 64 µg/mL | MIC (μg/mL) of the antibiotic [8]: 64 µg/mL | MIC (μg/mL) of the antibiotic [9]: 64 µg/mL | MIC (μg/mL) of the antibiotic [10]: 16 µg/mL | MIC (μg/mL) of the antibiotic [11]: 64 µg/mL | MIC (μg/mL) of the antibiotic [12]: 64 µg/mL | MIC (μg/mL) of the antibiotic [13]: 64 µg/mL

Nc1nc(-c2ccc(NC(=O)c3c(Cl)cc(Cl)cc3Cl)cc2)c[nH]1 [Compound 10]
Fold reduction (erythromycin MIC) [14]: 8 fold | ΣFIC with colistin [15]: 33 | MIC [16]: 100 µM (≈ 38.2 µg/mL)

CO[C@H]1/C=C/O[C@@]2(C)Oc3c(C)c(O)c4c(O)c(c(/C=N/N5CCN(C)CC5)c(O)c4c3C2=O)NC(=O)/C(C)=C\C=C\[C@H](C)[C@H](O)[C@@H](C)[C@@H](O)[C@@H](C)[C@H](OC(C)=O)[C@@H]1C [rifampin, reference compound]
survival after 6 days ([1]; rifampin at 30 mg/kg, one injection): 64%
